Results: article PMC12775434, “Ultra-large virtual screening unveils potent agonists of the neuromodulatory orphan receptor GPR139” (Nature Communications, 2025)
Where “and” joins values, the source holds several entries; their conditions need not be identical. Equal values may be shown once.

Target: T1, human muscarinic acetylcholine M1 receptor (M1R) (Homo sapiens, UniProt P11229)
T1 sequence (P11229 1-460): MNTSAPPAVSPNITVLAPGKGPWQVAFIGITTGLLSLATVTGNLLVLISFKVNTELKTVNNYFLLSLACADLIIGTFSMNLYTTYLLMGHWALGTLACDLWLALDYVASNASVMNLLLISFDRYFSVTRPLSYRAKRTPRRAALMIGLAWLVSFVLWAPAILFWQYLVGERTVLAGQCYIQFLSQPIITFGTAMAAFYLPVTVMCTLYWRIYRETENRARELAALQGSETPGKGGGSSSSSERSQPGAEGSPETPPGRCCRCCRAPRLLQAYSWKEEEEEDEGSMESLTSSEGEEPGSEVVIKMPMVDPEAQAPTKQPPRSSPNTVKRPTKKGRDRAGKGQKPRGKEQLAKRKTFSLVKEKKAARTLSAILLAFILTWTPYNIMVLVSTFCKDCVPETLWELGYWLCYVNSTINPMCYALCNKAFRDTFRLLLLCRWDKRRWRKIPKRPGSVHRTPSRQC
Experiment: Ca2+ mobilization counter-screen in M1R-CHOk1 cells;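 further: 10 µM test compound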
Type: cell-based
Method in brief: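 Fluorescence (ex 485 nm, em 525 nm) recorded at 37 °C after automated compound addition to CHO-K1 cells stably expressing M1R. Cells were dye-loaded with 2 µM Fluo-4 AM for 1 h at 37 °C, with 2.5 mM probenecid present; final DMSO at most 0.3%.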

[1] = individual replicates (Supplementary Figure 2)
[2] = individual replicates (Supplementary Figure 5)

| Structure (SMILES) | Ca2+ signal (% of Carbachol) [1] | Ca2+ signal (% of Carbachol) [2] | also measured |
| --- | --- | --- | --- |
| Cc1cc(-c2nc(CC(=O)NC(C)c3ccccc3)no2)sc1C (stereo not drawn) [Compound 1, CC(NC(=O)CC1=NOC(=N1)C2=CC(C)=C(C)S2)C=3C=CC=CC3] | -12 % of Carbachol and -15 % of Carbachol |  |  |
| Cc1cscc1-c1nc(CC(=O)NC(C)c2ccccc2)no1 (stereo not drawn) [Compound 1.1, CC(C1=CC=CC=C1)NC(CC2=NOC(C3=CSC=C3C)=N2)=O] |  | -5 % of Carbachol and -11 % of Carbachol |  |
| COc1ccccc1-c1nc(CC(=O)NC(C)c2ccccc2)no1 (stereo not drawn) [Compound 1.2, COC1=C(C2=NC(CC(NC(C3=CC=CC=C3)C)=O)=NO2)C=CC=C1] |  | -21 % of Carbachol and 0.491 % of Carbachol and -3.3 % of Carbachol |  |
| Cc1nocc1-c1nc(CC(=O)NC(C)c2ccccc2)no1 (stereo not drawn) [Compound 1.5, CC(C1=CC=CC=C1)NC(CC2=NOC(C3=CON=C3C)=N2)=O] |  | 5 % of Carbachol and 6 % of Carbachol and 8 % of Carbachol |  |
| COc1cc(-c2nc(CC(=O)NC(C)c3ccccc3)no2)ccn1 (stereo not drawn) [Compound 1.7, COC1=NC=CC(C2=NC(CC(NC(C3=CC=CC=C3)C)=O)=NO2)=C1] |  | -3 % of Carbachol and 5.61 % of Carbachol and 2.51 % of Carbachol |  |
| Cc1cc(-c2nc(CC(=O)NC(C)c3ccccc3)no2)n(C)n1 (stereo not drawn) [Compound 1.16, CC(C1=CC=CC=C1)NC(CC2=NOC(C3=CC(C)=NN3C)=N2)=O] |  | -2 % of Carbachol and 14 % of Carbachol and 5 % of Carbachol |  |
| COC(=O)c1cc(NC(=O)NC(C)c2cccc(F)c2F)ccc1C (stereo not drawn) [Compound 2, COC(=O)C=1C=C(NC(=O)NC(C)C=2C=CC=C(F)C2F)C=CC1C] | -10 % of Carbachol and 1.81 % of Carbachol |  |  |
| Cc1noc(C(C)NC(=O)Nc2cccc(-c3ccccc3)c2)n1 (stereo not drawn) [Compound 3, CC(NC(=O)NC=1C=CC=C(C1)C=2C=CC=CC2)C3=NC(C)=NO3] | -13 % of Carbachol and -10 % of Carbachol |  |  |
| Cc1noc(CNC(=O)C2(C)CCCCN2C(=O)c2ccccc2)n1 (stereo not drawn) [Compound 4, CC1=NOC(CNC(=O)C2(C)CCCCN2C(=O)C=3C=CC=CC3)=N1] | -17 % of Carbachol and -15 % of Carbachol |  |  |
| CC(NC(=O)Cn1cncc(-c2ccccc2)c1=O)c1ccccc1 (stereo not drawn) [Compound 5, C[C@@H](NC(=O)CN1C=NC=C(C=2C=CC=CC2)C1=O)C=3C=CC=CC3] | -15 % of Carbachol and -5 % of Carbachol |  |  |
| COc1cc(OC)cc(C(=O)NNC(=O)Nc2cccc3ccccc23)c1 [Lundbeck Cmp 1a, reference compound] |  |  | Ca2+ signal (% of Carbachol) (10 µM, individual replicates (Supplementary Figure 2)): -13 % of Carbachol and 8 % of Carbachol; Ca2+ signal (% of Carbachol) (10 µM, individual replicates (Supplementary Figure 5)): -0.591 % of Carbachol and 1.3 % of Carbachol and 0.449 % of Carbachol |
